# Results: patent US10941113B2, “Sulfamoyl-arylamides and the use thereof as medicaments for the treatment of hepatitis B” (Janssen Sciences Ireland UC, priority 2013, dated 2021)
# pEC50: −log10 of the molar value.
# Key:
# Format in all cases: cell-based
# [1] = tested on: HBV; assay: Anti-HBV activity, HepG2.2.15 stable transfected cell line, HBV DNA from secreted virions by realtime PCR; details: Hepatitis B virus, 144 h, HepG2.2.15 cells, 6 days of treatment
# [2] = Cytotoxicity in HepG2 cells, Resazurin assay; details: human, incubated 4 days, Resazurin viability
# [3] = tested on: HBV; assay: Anti-HBV activity, HepG2.117 inducible HBV producing cell line (Tet-off), intracellular HBV DNA by realtime PCR; details: Hepatitis B virus, 72 h, HepG2.117 cells, 3 days of treatment
Structure (SMILES),pEC50 [1],CC50 at 4 days [2],pEC50 [3]
Cc1cc(NC(=O)c2cccc(S(=O)(=O)N[C@@H](C)CNC(=O)OC(C)(C)C)c2)ccc1F [Compound 19],6.13,> 25000 nM,6.30
Cc1cc(NC(=O)c2cccc(S(=O)(=O)N[C@H](CO)C(C)C)c2)ccc1F [Compound 11],6.26,> 25000 nM,6.08
COC(=O)NC[C@H](C)NS(=O)(=O)c1cccc(C(=O)Nc2ccc(F)c(C)c2)c1 [Compound 1b],5.73,> 25000 nM,5.80
Cc1cc(NC(=O)c2cccc(S(=O)(=O)NC(C)(C)CC(C)O)c2)ccc1F (stereo not drawn) [Compound 36],6.57,> 25000 nM,6.82
Cc1cc(NC(=O)c2cccc(S(=O)(=O)NC(C)CCO)c2)ccc1F (stereo not drawn) [Compound 13],6.68,> 25000 nM,6.15
Cc1cc(NC(=O)c2cccc(S(=O)(=O)NCC(C)(C)C(=O)O)c2)ccc1F [Compound 37],5.57,> 25000 nM,5.52
Cc1cc(NC(=O)c2cccc(S(=O)(=O)NC(C)(C)CCO)c2)ccc1F [Compound 15],6.66,> 25000 nM,6.49
Cc1cc(NC(=O)c2cccc(S(=O)(=O)NC(C)CC#N)c2)ccc1F (racemic) [Compound 10],6.66,> 25000 nM,6.72
Cc1cc(NC(=O)c2cccc(S(=O)(=O)N[C@H](C)CC#N)c2)ccc1F (racemic) [Compound 10a],7.00,> 25000 nM,6.85
Cc1cc(NC(=O)c2cccc(S(=O)(=O)NC(C)C(C)O)c2)ccc1F (stereo not drawn) [Compound 33],6.49,> 25000 nM,6.59
CNCC(C)NS(=O)(=O)c1cccc(C(=O)Nc2ccc(F)c(C)c2)c1 (stereo not drawn) [Compound 2],5.03,> 25000 nM,5.62
Cc1cc(NC(=O)c2cccc(S(=O)(=O)N[C@@H](C)C(N)=O)c2)ccc1F [Compound 23],5.96,> 25000 nM,5.84
"Cc1cc(NC(=O)c2cccc(S(=O)(=O)NC(C)CO)c2)ccc1F (stereo not drawn) [Compound 4, N-(4-fluoro-3-methyl-phenyl)-3-[(2-hydroxy-1-methyl-ethyl)sulfamoyl]benzamide]",6.55,> 25000 nM,6.49
Cc1cc(NC(=O)c2cccc(S(=O)(=O)N[C@@H](C)CO)c2)ccc1F [Compound 4b],6.40,> 25000 nM,6.03
Cc1cc(NC(=O)c2cccc(S(=O)(=O)NC(C)CC(=O)N(C)C)c2)ccc1F (stereo not drawn) [Compound 39],5.98,> 25000 nM,6.07
COCC(C)(CO)NS(=O)(=O)c1cccc(C(=O)Nc2ccc(F)c(C)c2)c1 (stereo not drawn) [Compound 31],6.32,> 25000 nM,6.33
COCC(C)(C)NS(=O)(=O)c1cccc(C(=O)Nc2ccc(F)c(C)c2)c1 [Compound 34],6.27,> 25000 nM,6.19
COC(=O)NC[C@@H](C)NS(=O)(=O)c1cccc(C(=O)Nc2ccc(F)c(C)c2)c1 [Compound 1a],6.74,> 25000 nM,6.96
Cc1cc(NC(=O)c2cccc(S(=O)(=O)NCCS(C)(=O)=O)c2)ccc1F [Compound 32],6.72,> 25000 nM,6.19
Cc1cc(NC(=O)c2cccc(S(=O)(=O)N[C@H](C)C(N)=O)c2)ccc1F [Compound 22],6.26,> 25000 nM,6.30
CC(=O)NCC(C)NS(=O)(=O)c1cccc(C(=O)Nc2ccc(F)c(C)c2)c1 (stereo not drawn) [Compound 9],5.89,> 25000 nM,6.25
Cc1cc(NC(=O)c2cc(S(=O)(=O)N[C@H](C)CO)ccc2C)ccc1F [Compound 38],6.80,> 25000 nM,6.74
Cc1cc(NC(=O)c2cccc(S(=O)(=O)N[C@H](C)C(=O)N(C)C)c2)ccc1F [Compound 40],5.64,> 25000 nM,5.58

Structure (SMILES),pEC50 [1],CC50 at 4 days [2],pEC50 [3]
COC(C)(C)CC(C)NS(=O)(=O)c1cccc(C(=O)Nc2ccc(F)c(C)c2)c1 (stereo not drawn) [Compound 28],6.57,> 25000 nM,5.85
C#CC(C)(C)NS(=O)(=O)c1cccc(C(=O)Nc2ccc(F)c(C)c2)c1 [Compound 16],6.72,> 25000 nM,6.23
COCC(C)(CCO)NS(=O)(=O)c1cccc(C(=O)Nc2ccc(F)c(C)c2)c1 (stereo not drawn) [Compound 27],5.94,> 25000 nM,6.02
CCC(C)(CO)NS(=O)(=O)c1cccc(C(=O)Nc2ccc(F)c(C)c2)c1 (stereo not drawn) [Compound 26],6.41,> 25000 nM,6.47
CNC(=O)CCC(C)NS(=O)(=O)c1cccc(C(=O)Nc2ccc(F)c(C)c2)c1 (stereo not drawn) [Compound 7],6.27,> 25000 nM,6.62
Cc1cc(NC(=O)c2cccc(S(=O)(=O)NC(C)(C)CO)c2)ccc1F [Compound 14],6.42,> 25000 nM,6.28
COCC(C)NS(=O)(=O)c1cccc(C(=O)Nc2ccc(F)c(C)c2)c1 (stereo not drawn) [Compound 5],6.62,> 25000 nM,6.08
Cc1cc(NC(=O)c2cccc(S(=O)(=O)NC(C)C(C)(C)O)c2)ccc1F (stereo not drawn) [Compound 30],6.59,> 25000 nM,6.77
Cc1cc(NC(=O)c2cccc(S(=O)(=O)N[C@@H](C)C(=O)N(C)C)c2)ccc1F [Compound 35],5.57,> 25000 nM,5.44
COC(=O)N(C)CC(C)NS(=O)(=O)c1cccc(C(=O)Nc2ccc(F)c(C)c2)c1 (stereo not drawn) [Compound 20],6.26,> 25000 nM,6.25
COC(=O)NCC(C)NS(=O)(=O)c1cccc(C(=O)Nc2ccc(F)c(C)c2)c1 (stereo not drawn) [Compound 1],6.89,> 25000 nM,6.43
COCCC(C)NS(=O)(=O)c1cccc(C(=O)Nc2ccc(F)c(C)c2)c1 (stereo not drawn) [Compound 24],6.68,> 25000 nM,5.86
Cc1cc(NC(=O)c2cccc(S(=O)(=O)NC(C)C(C)CO)c2)ccc1F (stereo not drawn) [Compound 25],6.60,> 25000 nM,6.24
CC(=O)CC(C)NS(=O)(=O)c1cccc(C(=O)Nc2ccc(F)c(C)c2)c1 (stereo not drawn) [Compound 29],6.72,> 25000 nM,6.64
Cc1cc(NC(=O)c2cccc(S(=O)(=O)N[C@H](C)CO)c2)ccc1F [Compound 4a],6.68,> 25000 nM,6.59
CNC(=O)[C@@H](C)NS(=O)(=O)c1cccc(C(=O)Nc2ccc(F)c(C)c2)c1 [Compound 41],5.65,> 25000 nM,5.87
COC(=O)CCC(C)NS(=O)(=O)c1cccc(C(=O)Nc2ccc(F)c(C)c2)c1 (stereo not drawn) [Compound 8],5.85,> 25000 nM,5.55
Cc1cc(NC(=O)c2cccc(S(=O)(=O)NC(C)CCCC(C)(C)O)c2)ccc1F (racemic) [Compound 21],6.77,> 25000 nM,5.77
Cc1cc(NC(=O)c2cccc(S(=O)(=O)NC(C)CCC(=O)N(C)C)c2)ccc1F (stereo not drawn) [Compound 6],6.74,> 25000 nM,6.96
CCC[C@@H](CO)NS(=O)(=O)c1cccc(C(=O)Nc2ccc(F)c(C)c2)c1 [Compound 12],6.19,> 25000 nM,6.09
Cc1cc(NC(=O)c2cccc(S(=O)(=O)N[C@H](C)CS(C)(=O)=O)c2)ccc1F [Compound 42],6.60,> 25000 nM,6.82
Cc1cc(NC(=O)c2cccc(S(=O)(=O)NCCCC(=O)N(C)C)c2)ccc1F [Compound 17],6.59,> 25000 nM,6.21
Cc1cc(NC(=O)c2cccc(S(=O)(=O)NC(C)CN(C)C)c2)ccc1F (stereo not drawn) [Compound 3],5.12,> 25000 nM,5.96
